According to patent US12378224B2 (Dong-A Socio Holdings Co., Ltd., priority 2016, dated 2025):

The compounds below were run against human c-MER catalytic domain (Homo sapiens (Human), UniProt Q12866) (assay: TR-FRET Kinase Activity Biochemical Assay (LanthaScreen)). Conditions: 10 uM ATP, 1 hour, kinase not given.
Text: For the SAR (structure-activity relationship) and compound screening, LanthaScreen™ TR-FRET (Time-Resolved fluorescence energy transfer) assay was employed using the phospho-tyrosine specific Terbium (Tb)-labelded antibody with a fluorescein labeled poly-GT (glutamate-tyrosine) as a substrate. Upon excitation at 340 nm by UV, the energy from Tb donor of the antibody is transferred to the fluorescein of the phosphorylated poly GT substrate, and fluorescein emits light at 520 nm. The ratio between the intensity of […] was used to quantify the level of kinase activity. The recombinant proteins of human c-MER and AXL catalytic domains, Fluorescein-labeled poly-GT substrate, Tb-labeled anti-phosphorylated tyrosine antibodies, the kinase assay buffer, and 0.5M EDTA solution were purchased (Life technologies, USA). The TR-FRET assays were carried out in the white low volume 384-well plate (Corning, USA). […] 10 mM EDTA was added to terminate the enzyme reaction, and the level of phosphorylation of poly-GT substrate was determined following 30 min incubation with 2 nM Tb-labeled antibody. The fluorescence intensity was measured with Envision™ plate reader (PerkinElmer, USA).

Sequence of human c-MER catalytic domain (Q12866 587-858): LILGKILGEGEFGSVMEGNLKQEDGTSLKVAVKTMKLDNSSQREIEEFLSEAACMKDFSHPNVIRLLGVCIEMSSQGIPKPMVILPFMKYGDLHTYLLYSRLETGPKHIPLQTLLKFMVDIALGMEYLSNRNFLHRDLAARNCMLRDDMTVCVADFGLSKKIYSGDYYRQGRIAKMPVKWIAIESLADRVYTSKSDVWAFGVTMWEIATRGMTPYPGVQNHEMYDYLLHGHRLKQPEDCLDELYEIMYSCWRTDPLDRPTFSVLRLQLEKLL

Row | IC50 [µM] | SMILES
1 | 0.1 to 1 | Nc1ncc(-c2ccc(C(=O)N3CCOCC3)cc2)cc1C(=O)N[C@@H]1CCN(Cc2ccc(Cl)cc2)C1 [Example 235, (R)-2-amino-N-(1-(4-chlorobenzyl)pyrrolidin-3-yl)-5-(4-(morpholine-4-carbonyl)phenyl)nicotinamide]
2 | 0.1 to 1 | CN1CCN(Cc2ccc(-c3cnc(N)c(C(=O)N[C@@H]4CCN(Cc5ccc(Cl)cc5)C4)c3)cc2)CC1 [Example 236, (R)-2-amino-N-(1-(4-chlorobenzyl)pyrrolidin-3-yl)-5-(4-((4-methylpiperazin-1-yl)methyl)phenyl)nicotinamide]
3 | 0.1 to 1 | CC(=O)N1CCC(n2cc(-c3cnc(N)c(C(=O)N[C@@H]4CCN(Cc5ccccc5)C4)c3)cn2)CC1 [Example 240, (R)-5-(1-(1-acetylpiperidin-4-yl)-1H-pyrazol-4-yl)-2-amino-N-(1-benzylpyrrolidin-3-yl)nicotinamide]
4 | 0.1 to 1 | Cn1cc(-c2cnc(N)c(C(=O)N[C@@H]3CCN(Cc4ccccc4-c4cccc(CO)c4)C3)c2)cn1 [Example 247, (R)-2-amino-N-(1-((3′-(hydroxymethyl)-[1,1′-biphenyl]-2-yl)methyl)pyrrolidin-3-yl)-5-(1-methyl-1H-pyrazol-4-yl)nicotinamide]
5 | 0.1 to 1 | Cn1cc(-c2cnc(N)c(C(=O)N[C@@H]3CCN(Cc4ccccc4-c4ccc(CO)cc4)C3)c2)cn1 [Example 248, (R)-2-amino-N-(1-((4′-(hydroxymethyl)-[1,1′-biphenyl]-2-yl)methyl)pyrrolidin-3-yl)-5-(1-methyl-1H-pyrazol-4-yl)nicotinamide]
6 | 0.1 to 1 | Cn1cc(-c2cnc(N)c(C(=O)N[C@@H]3CCN(Cc4ccc(F)c(-c5ccccc5)c4)C3)c2)cn1 [Example 249, (R)-2-amino-N-(1-((6-fluoro-[1,1′-biphenyl]-3-yl)methyl)pyrrolidin-3-yl)-5-(1-methyl-1H-pyrazol-4-yl)nicotinamide]
7 | 0.01 to 0.1 | CN(C)Cc1ccc(-c2cccc(NC(=O)N3CC[C@@H](NC(=O)c4cc(-c5cnn(C)c5)cnc4N)C3)c2)cc1 [Example 266, (R)-2-amino-N-(1-((4′-((dimethylamino)methyl)-[1,1′-biphenyl]-3-yl)carbamoyl)pyrrolidin-3-yl)-5-(1-methyl-1H-pyrazol-4-yl)nicotinamide]
8 | 0.01 to 0.1 | Cn1cc(-c2cnc(N)c(C(=O)N[C@@H]3CCN(C(=O)Nc4ccc(-c5cccc(CN)c5)cc4)C3)c2)cn1 [Example 269, (R)-2-amino-N-(1-((3′-(aminomethyl)-[1,1′-biphenyl]-4-yl)carbamoyl)pyrrolidin-3-yl)-5-(1-methyl-1H-pyrazol-4-yl)nicotinamide]
9 | 0.1 to 1 | CN1CCN(Cc2cccc(-c3ccc(NC(=O)N4CC[C@@H](NC(=O)c5cc(-c6cnn(C)c6)cnc5N)C4)cc3)c2)CC1 [Example 272, (R)-2-amino-5-(1-methyl-1H-pyrazol-4-yl)-N-(1-((3′-((4-methylpiperazin-1-yl)methyl)-[1,1′-biphenyl]-4-yl)carbamoyl)pyrrolidin-3-yl)nicotinamide]
10 | 0.1 to 1 | Cn1cc(-c2cnc(N)c(C(=O)N[C@@H]3CCN(C(=O)Oc4cccc(-c5ccc(CCC(=O)O)cc5)c4)C3)c2)cn1 [Example 276, (R)-3-(3′-((3-(2-amino-5-(1-methyl-1H-pyrazol-4-yl)nicotinamido)pyrrolidine-1-carbonyl)oxy)-[1,1′-biphenyl]-4-yl) propanoic acid]
11 | 0.1 to 1 | Cn1cc(-c2cnc(N)c(C(=O)N[C@@H]3CCN(C(=O)Oc4cccc(-c5cccc(C(=O)NCCC#N)c5)c4)C3)c2)cn1 [Example 277, 3′-((2-cyanoethyl)carbamoyl)-[1,1′-biphenyl]-3-yl (R)-3-(2-amino-5-(1-methyl-1H-pyrazol-4-yl)nicotinamido)pyrrolidine-1-carboxylate]
12 | 0.1 to 1 | Cn1cc(-c2cnc(N)c(C(=O)N[C@@H]3CCN(C(=O)Oc4cccc(-c5cnn(Cc6ccccc6)c5)c4)C3)c2)cn1 [Example 283, 3-(1-benzyl-1H-pyrazol-4-yl)phenyl (R)-3-(2-amino-5-(1-methyl-1H-pyrazol-4-yl)nicotinamido)pyrrolidine-1-carboxylate]
13 | 0.01 to 0.1 | Cn1cc(-c2cnc(N)c(C(=O)N[C@@H]3CCN(C(=O)Oc4cc(Cl)cc(-c5ccc(CO)cc5)c4)C3)c2)cn1 [Example 291, 5-chloro-4′-(hydroxymethyl)-[1,1′-biphenyl]-3-yl (R)-3-(2-amino-5-(1-methyl-1H-pyrazol-4-yl)nicotinamido)pyrrolidine-1-carboxylate]

Row | SMILES | IC50 [µM]
14 | N#Cc1ccc(-c2cnc(N)c(C(=O)N[C@@H]3CCN(Cc4ccc(Cl)cc4)C3)c2)cc1 [Example 238, (R)-2-amino-N-(1-(4-chlorobenzyl)pyrrolidin-3-yl)-5-(4-cyanophenyl)nicotinamide] | > 1
15 | Cn1cc(-c2cnc(N)c(C(=O)N[C@@H]3CCN(Cc4ccc(F)c(C5=CCNCC5)c4)C3)c2)cn1 [Example 252, (R)-2-amino-N-(1-(4-fluoro-3-(1,2,3,6-tetrahydropyridin-4-yl)benzyl)pyrrolidin-3-yl)-5-(1-methyl-1H-pyrazol-4-yl)nicotinamide] | > 1
16 | CN1CCN(Cc2ccc(-c3cccc(CCN4CC[C@@H](NC(=O)c5cc(-c6cnn(C)c6)cnc5N)C4)c3)cc2)CC1 [Example 253, (R)-2-amino-5-(1-methyl-1H-pyrazol-4-yl)-N-(1-(2-(4′-((4-methylpiperazin-1-yl)methyl)-[1,1′-biphenyl]-3-yl)ethyl)pyrrolidin-3-yl)nicotinamide] | > 1
17 | CN1CCN(Cc2ccc(-c3ccc(NC(=O)N4CC[C@@H](NC(=O)c5cc(-c6cnn(C)c6)cnc5N)C4)cc3)cc2)CC1 [Example 273, (R)-2-amino-5-(1-methyl-1H-pyrazol-4-yl)-N-(1-((4′-((4-methylpiperazin-1-yl)methyl)-[1,1′-biphenyl]-4-yl)carbamoyl)pyrrolidin-3-yl)nicotinamide] | > 1
18 | Cn1cc(-c2cnc(N)c(C(=O)N[C@@H]3CCN(C(=O)Oc4cccc(-c5cnn(C6CCNCC6)c5)c4)C3)c2)cn1 [Example 285, 3-(1-(piperidin-4-yl)-1H-pyrazol-4-yl)phenyl (R)-3-(2-amino-5-(1-methyl-1H-pyrazol-4-yl)nicotinamido)pyrrolidine-1-carboxylate] | 0.1 to 1
19 | Cn1cc(-c2cnc(N)c(C(=O)N[C@@H]3CCN(C(=O)Oc4cccc(-c5cnn(CCN6CCCC6)c5)c4)C3)c2)cn1 [Example 286, 3-(1-(2-(pyrrolidin-1-yl)ethyl)-1H-pyrazol-4-yl)phenyl (R)-3-(2-amino-5-(1-methyl-1H-pyrazol-4-yl)nicotinamido)pyrrolidine-1-carboxylate] | 0.1 to 1
20 | CN1CCN(Cc2ccc(-c3cc(Cl)cc(OC(=O)N4CC[C@@H](NC(=O)c5cc(-c6cnn(C)c6)cnc5N)C4)c3)cc2)CC1 [Example 292, 5-chloro-4′-((4-methylpiperazin-1-yl)methyl)-[1,1′-biphenyl]-3-yl (R)-3-(2-amino-5-(1-methyl-1H-pyrazol-4-yl)nicotinamido)pyrrolidine-1-carboxylate] | < 0.01
21 | Cn1cc(-c2cnc(N)c(C(=O)N[C@@H]3CCN(C(=O)Oc4ccc5ccc(OC6CCNCC6)cc5c4)C3)c2)cn1 [Example 294, 7-(piperidin-4-yloxy)naphthalen-2-yl (R)-3-(2-amino-5-(1-methyl-1H-pyrazol-4-yl)nicotinamido)pyrrolidine-1-carboxylate] | 0.01 to 0.1
